Data as given in patent publication US20240261267A1, “METHODS FOR TREATING MULTIPLE SCLEROSIS” (Vanda Pharmaceuticals Inc., priority 2021, published 2024).

Test system: primary mouse OPCs
Test: agarose drop migration assay
Type: cell-based
Details: any of the concentrations tested (0.3 nM to 3000 nM); after 5 days
Description: The effects of ponesimod, a selective S1P1 receptor agonist, and A971432, a selective S1P5 receptor agonist, on oligodendrocyte precursor cell (OPC) migration and differentiation were evaluated. Nine concentrations were tested (logarithmic dilutions ranging from 0.3 nM to 3000 nM, n=6 per concentration). Fingolimod phosphate (P-FTY720, 3000 nM, n=6) was included as a positive control, 0.1% DMSO was included (min.one/plate) as a negative control. Primary mouse OPCs were harvested on postnatal day 0 or 1 and mixed glia cultures were maintained for 14 days. Primary OPCs were then purified using the shake-off method, and used for either a migration assay, or a differentiation assay, as detailed below. To harvest primary mouse OPCs, cortices are isolated from mouse pups on postnatal day 0 or 1 and placed in ice-cold Dulbecco's Modified Eagle Medium (DMEM) (Sigma Aldrich, Overijse, BE). The cortices are homogenized and centrifuged for 5 minutes at 300 G. The supernatant is removed, and a papain solution is added for 30 minutes (125 uL DMEM solution per brain containing 20 units/ml papain and 40 μg/ml DNase, at 37 degrees). Digestion is inactivated by adding 9 ml cold DMEM. The solution is then centrifuged for 5 minutes at […]. The supernatant is carefully removed, and the pellet is resuspended in 2-5 ml culture medium (DMEM with 10% fetal calf serum (Biowest, Nuaillé, FR) and 1% pen/strep (Sigma Aldrich, Overijse, BE)). […] Cell suspension is divided over PLL (Sigma Aldrich, Overijse, BE)-coated flasks (2 brains per flask) and DMEM is added to a final volume of 10 ml. DMEM is replaced on day 4, 7, and 11. On day 7 and 11, insulin (Sigma Aldrich, Overijse, BE) is added to the medium (5μg/ml). On day 14, OPCs are separated from astrocytes by the shake-off method: flasks are placed on a shaker for 45 minutes at 75 rpm (37 degrees). […] The extent of cell migration is then measured after 5 days using Incucyte imaging analysis and fluorescent endpoint staining. For each well, the 15-20 cells that migrated the furthest away from the agarose drop are measured and averaged. […]

O=C(O)C1CN(Cc2ccc(OCc3ccc(Cl)c(Cl)c3)cc2)C1 [A97]
migration distance: did not affect migration distance

CCC/N=C1\S/C(=C\c2ccc(OC[C@H](O)CO)c(Cl)c2)C(=O)N1c1ccccc1C [ponesimod, (R)-5-[3-chloro-4-(2,3-dihydroxy-propoxy)-benz[Z]ylidene]-2-([Z]-propylimino)-3-o-tolyl-thiazolidin-4-one]
migration distance: did not affect migration distance
